Assay results from the supplement of paper PMC10307832.

Columns and labels:
Experiment in all cases: relative viability (nuclei count vs DMSO), 5 days (fraction); higher = more cells survive
NCI-H460 = system: NCI-H460
Procedure, shortened: (§1)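 Relative viability divides the nuclei count in treated wells by that in vehicle wells. Lung cancer cell lines were seeded in 1536-well plates, dosed by pin tool the next day, and fixed and stained after 5 days in one step with final 0.05% Triton X-100, 1% formaldehyde and 1 ug/ml Hoechst. Dosing was a single drug or a fixed anchor-drug dose plus five library-drug doses (not always all listed) in √10 steps, and values are medians of duplicate plates imaged at 4×.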

NCI-H2023 = system: NCI-H2023
Procedure, shortened: as §1

COR-L23 = system: COR-L23
Procedure, shortened: as §1

RERF-LC-KJ = system: RERF-LC-KJ
Procedure, shortened: as §1

NCI-H1650 = system: NCI-H1650
Procedure, shortened: as §1

NCI-H1993 = system: NCI-H1993
Procedure, shortened: as §1

NCI-H2009 = system: NCI-H2009
Procedure, shortened: as §1

201T = system: 201T
Procedure, shortened: as §1

SW 1573 = system: SW 1573
Procedure, shortened: as §1

A-427 = system: A-427
Procedure, shortened: as §1

LCLC-103H = system: LCLC-103H
Procedure, shortened: as §1

ChaGo-K-1 = system: ChaGo-K-1
Procedure, shortened: as §1

NCI-H650 = system: NCI-H650
Procedure, shortened: as §1

HCC-44 = system: HCC-44
Procedure, shortened: as §1

LCLC-97TM1 = system: LCLC-97TM1
Procedure, shortened: as §1

HCC-366 = system: HCC-366
Procedure, shortened: as §1

LOU-NH91 = system: LOU-NH91
Procedure, shortened: as §1

HCC-78 = system: HCC-78
Procedure, shortened: as §1

NCI-H1734 = system: NCI-H1734
Procedure, shortened: as §1

NCI-H2126 = system: NCI-H2126
Procedure, shortened: as §1

NCI-H441 = system: NCI-H441
Procedure, shortened: as §1

HCC-15 = system: HCC-15
Procedure, shortened: as §1

HARA = system: HARA
Procedure, shortened: as §1

O=C(O)CCCCC(CCSCc1ccccc1)SCc1ccccc1 (centres undefined) [CPI-613] + Cc1cc(Nc2cc(N3CCN(C)CC3)nc(Sc3ccc(NC(=O)C4CC4)cc3)n2)n[nH]1 [Tozasertib] (partner 0.1 µM)
relative viability (NCI-H460; first compound 5 µM): 0.497 | relative viability (NCI-H460; first compound 15.81 µM): 0.28 | relative viability (NCI-H460; first compound 50 µM): 0.457 | relative viability (NCI-H460; first compound 158.11 µM): 0.371 | relative viability (NCI-H460; first compound 500 µM): 0.418 | relative viability (NCI-H2023; first compound 5 µM): 0.359 | relative viability (NCI-H2023; first compound 15.81 µM): 0.234 | relative viability (NCI-H2023; first compound 50 µM): 0.312 | relative viability (NCI-H2023; first compound 158.11 µM): 0.0417 | relative viability (NCI-H2023; first compound 500 µM): 0.0077 | relative viability (COR-L23; first compound 5 µM): 0.208 | relative viability (COR-L23; first compound 15.81 µM): 0.145 | relative viability (COR-L23; first compound 50 µM): 0.192 | relative viability (COR-L23; first compound 158.11 µM): 0.11 | relative viability (COR-L23; first compound 500 µM): 0.0434 | relative viability (RERF-LC-KJ; first compound 5 µM): 0.536 | relative viability (RERF-LC-KJ; first compound 15.81 µM): 0.513 | relative viability (RERF-LC-KJ; first compound 50 µM): 0.454 | relative viability (RERF-LC-KJ; first compound 158.11 µM): 0.188 | relative viability (RERF-LC-KJ; first compound 500 µM): 0.0899 | relative viability (NCI-H1650; first compound 5 µM): 0.441 | relative viability (NCI-H1650; first compound 15.81 µM): 0.321 | relative viability (NCI-H1650; first compound 50 µM): 0.417 | relative viability (NCI-H1650; first compound 158.11 µM): 0.0645 | relative viability (NCI-H1650; first compound 500 µM): 0.0151 | relative viability (NCI-H1993; first compound 5 µM): 0.631 | relative viability (NCI-H1993; first compound 15.81 µM): 0.669 | relative viability (NCI-H1993; first compound 50 µM): 0.559 | relative viability (NCI-H1993; first compound 158.11 µM): 0.507 | relative viability (NCI-H1993; first compound 500 µM): 0.426 | relative viability (NCI-H2009; first compound 5 µM): 0.67 | relative viability (NCI-H2009; first compound 15.81 µM): 0.696 | relative viability (NCI-H2009; first compound 50 µM): 0.699 | relative viability (NCI-H2009; first compound 158.11 µM): 0.136 | relative viability (NCI-H2009; first compound 500 µM): 0.0212 | relative viability (201T; first compound 5 µM): 0.913 | relative viability (201T; first compound 15.81 µM): 0.846 | relative viability (201T; first compound 50 µM): 0.8 | relative viability (201T; first compound 158.11 µM): 0.443 | relative viability (201T; first compound 500 µM): 0.209 | relative viability (SW 1573; first compound 5 µM): 0.232 | relative viability (SW 1573; first compound 15.81 µM): 0.196 | relative viability (SW 1573; first compound 50 µM): 0.15 | relative viability (SW 1573; first compound 158.11 µM): 0.103 | relative viability (SW 1573; first compound 500 µM): 0.0651 | relative viability (A-427; first compound 5 µM): 0.204 | relative viability (A-427; first compound 15.81 µM): 0.193 | relative viability (A-427; first compound 50 µM): 0.203 | relative viability (A-427; first compound 158.11 µM): 0.124 | relative viability (A-427; first compound 500 µM): 0.0991 | relative viability (LCLC-103H; first compound 5 µM): 0.441 | relative viability (LCLC-103H; first compound 15.81 µM): 0.389 | relative viability (LCLC-103H; first compound 50 µM): 0.47 | relative viability (LCLC-103H; first compound 158.11 µM): 0.387 | relative viability (LCLC-103H; first compound 500 µM): 0.424 | relative viability (ChaGo-K-1; first compound 5 µM): 0.207 | relative viability (ChaGo-K-1; first compound 15.81 µM): 0.185 | relative viability (ChaGo-K-1; first compound 50 µM): 0.234 | relative viability (ChaGo-K-1; first compound 158.11 µM): 0.148 | relative viability (ChaGo-K-1; first compound 500 µM): 0.16 | relative viability (NCI-H650; first compound 5 µM): 0.702 | relative viability (NCI-H650; first compound 15.81 µM): 0.623 | relative viability (NCI-H650; first compound 50 µM): 0.699 | relative viability (NCI-H650; first compound 158.11 µM): 0.546 | relative viability (NCI-H650; first compound 500 µM): 0.586 | relative viability (HCC-44; first compound 5 µM): 0.936 | relative viability (HCC-44; first compound 15.81 µM): 0.845 | relative viability (HCC-44; first compound 50 µM): 0.969 | relative viability (HCC-44; first compound 158.11 µM): 0.322 | relative viability (HCC-44; first compound 500 µM): 0.0777 | relative viability (LCLC-97TM1; first compound 5 µM): 0.209 | relative viability (LCLC-97TM1; first compound 15.81 µM): 0.204 | relative viability (LCLC-97TM1; first compound 50 µM): 0.247 | relative viability (LCLC-97TM1; first compound 158.11 µM): 0.138 | relative viability (LCLC-97TM1; first compound 500 µM): 0.0361 | relative viability (HCC-366; first compound 5 µM): 0.0925 | relative viability (HCC-366; first compound 15.81 µM): 0.33 | relative viability (HCC-366; first compound 50 µM): 0.156 | relative viability (HCC-366; first compound 158.11 µM): 0.0259 | relative viability (HCC-366; first compound 500 µM): 0.0032 | relative viability (LOU-NH91; first compound 5 µM): 0.651 | relative viability (LOU-NH91; first compound 15.81 µM): 0.611 | relative viability (LOU-NH91; first compound 50 µM): 0.62 | relative viability (LOU-NH91; first compound 158.11 µM): 0.684 | relative viability (LOU-NH91; first compound 500 µM): 0.643 | relative viability (HCC-78; first compound 5 µM): 0.46 | relative viability (HCC-78; first compound 15.81 µM): 0.402 | relative viability (HCC-78; first compound 50 µM): 0.408 | relative viability (HCC-78; first compound 158.11 µM): 0.433 | relative viability (HCC-78; first compound 500 µM): 0.405 | relative viability (NCI-H1734; first compound 5 µM): 0.235 | relative viability (NCI-H1734; first compound 15.81 µM): 0.24 | relative viability (NCI-H1734; first compound 50 µM): 0.291 | relative viability (NCI-H1734; first compound 158.11 µM): 0.152 | relative viability (NCI-H1734; first compound 500 µM): 0.118 | relative viability (NCI-H2126; first compound 5 µM): 0.775 | relative viability (NCI-H2126; first compound 15.81 µM): 0.778 | relative viability (NCI-H2126; first compound 50 µM): 0.817 | relative viability (NCI-H2126; first compound 158.11 µM): 0.281 | relative viability (NCI-H2126; first compound 500 µM): 0.0758 | relative viability (NCI-H441; first compound 5 µM): 0.704 | relative viability (NCI-H441; first compound 15.81 µM): 0.633 | relative viability (NCI-H441; first compound 50 µM): 0.649 | relative viability (NCI-H441; first compound 158.11 µM): 0.247 | relative viability (NCI-H441; first compound 500 µM): 0.0826 | relative viability (HCC-15; first compound 5 µM): 0.514 | relative viability (HCC-15; first compound 15.81 µM): 0.367 | relative viability (HCC-15; first compound 50 µM): 0.369 | relative viability (HCC-15; first compound 158.11 µM): 0.29 | relative viability (HCC-15; first compound 500 µM): 0.112 | relative viability (HARA; first compound 15.81 µM): 0.117 | relative viability (HARA; first compound 50 µM): 0.0973 | relative viability (HARA; first compound 158.11 µM): 0.0946 | relative viability (HARA; first compound 500 µM): 0.0096
